# Assay results published in ChEMBL document CHEMBL1133798, “Potent and selective bicyclic lactam inhibitors of thrombin. Part 4: transition state inhibitors” (Bioorg Med Chem Lett, 2001).
# pIC50, pKi: −log10 of the molar value.
# Key:
# Serine protease 1 = Serine protease 1 (Homo sapiens, UniProt P07477); test: In vitro activity against human alpha trypsin was determined
# [1] = Oral bioavailability in rat (dose 30 mg/kg); assay type: ADME, organism-based; settings: in vivo
# Rattus norvegicus [2] = species: Rattus norvegicus; test: Thrombin time was measured in rat arterial thrombosis model; assay type: functional
# Rattus norvegicus [3] = species: Rattus norvegicus; test: Activated partial thromboplastin time was measured in rat arterial thrombosis model; assay type: functional
# Rattus norvegicus [4] = species: Rattus norvegicus; test: Mean occulation time was measured in rat arterial thrombosis model; assay type: functional
# Prothrombin = Prothrombin (Homo sapiens, UniProt P00734); test: In vitro activity against human alpha thrombin was determined
# Serine protease 1, sequence (P07477 whole entry): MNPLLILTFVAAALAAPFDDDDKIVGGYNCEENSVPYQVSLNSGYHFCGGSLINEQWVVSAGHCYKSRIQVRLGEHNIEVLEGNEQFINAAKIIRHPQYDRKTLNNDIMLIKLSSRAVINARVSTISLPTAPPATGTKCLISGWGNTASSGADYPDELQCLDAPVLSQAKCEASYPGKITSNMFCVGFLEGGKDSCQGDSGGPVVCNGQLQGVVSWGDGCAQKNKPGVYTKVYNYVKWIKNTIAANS
SMILES,pKi (Serine protease 1),bioavailability [1],TT (Rattus norvegicus [2]),APTT (Rattus norvegicus [3]),MOT (Rattus norvegicus [4]),pKi (Prothrombin),pIC50 (Serine protease 1),pIC50 (Prothrombin)
N[C@H]1CC[C@H](C(NC(=O)[C@@H]2CC[C@H]3CN(S(=O)(=O)Cc4ccccc4)CC(=O)N32)C(=O)c2nnnn2CC(=O)O)CC1 (some centres undefined),< 3.40,–,–,–,–,–,–,–
Cc1nc(C(=O)C(NC(=O)[C@@H]2CC[C@H]3CN(S(=O)(=O)Cc4ccccc4)CC(=O)N32)[C@H]2CC[C@H](N)CC2)sc1C(=O)O (some centres undefined),4.19,0.4%,99 s,20 s,16 min,7.10,–,–
Cn1nnnc1C(=O)C(NC(=O)[C@@H]1CC[C@H]2CN(S(=O)(=O)Cc3ccccc3)CC(=O)N21)[C@H]1CC[C@H](N)CC1 (some centres undefined),4.46,–,322 s,46 s,46 min,8.30,–,–
N[C@H]1CC[C@H](C(NC(=O)[C@@H]2CC[C@H]3CN(S(=O)(=O)Cc4ccccc4)CC(=O)N32)C(=O)c2nc3ccccc3s2)CC1 (some centres undefined),5.85,0.6%,339 s,25 s,>60 min,9.14,–,–
COC(=O)C(=O)C(NC(=O)[C@@H]1CC[C@H]2CN(S(=O)(=O)Cc3ccccc3)CC(=O)N21)[C@H]1CC[C@H](N)CC1 (some centres undefined),–,1.1%,999 s,46 s,>60 min,9.89,–,–
N[C@H]1CC[C@H](C(NC(=O)[C@@H]2CC[C@H]3CN(S(=O)(=O)Cc4ccccc4)CC(=O)N32)C(=O)C(=O)NCC(=O)O)CC1 (some centres undefined),4.54,–,–,–,–,8.67,–,–
CCSC(=O)C(=O)C(NC(=O)[C@@H]1CC[C@H]2CN(S(=O)(=O)Cc3ccccc3)CC(=O)N21)[C@H]1CC[C@H](N)CC1 (some centres undefined),6.82,0.3%,999 s,33 s,49 min,9.59,–,–
CNC(=O)C(=O)C(NC(=O)[C@@H]1CC[C@H]2CN(S(=O)(=O)Cc3ccccc3)CC(=O)N21)[C@H]1CC[C@H](N)CC1 (some centres undefined),5.62,–,999 s,47 s,20 min,9.48,–,–
CCCCOC(=O)C(=O)C(NC(=O)[C@@H]1CC[C@H]2CN(S(=O)(=O)Cc3ccccc3)CC(=O)N21)[C@H]1CC[C@H](N)CC1 (some centres undefined),–,0.7%,883 s,53 s,47 min,–,6.26,10.00
N[C@H]1CC[C@H](C(NC(=O)[C@@H]2CC[C@H]3CN(S(=O)(=O)Cc4ccccc4)CC(=O)N32)C(=O)c2nccs2)CC1 (some centres undefined),5.10,1.8%,829 s,66 s,> 60 min,8.49,–,–
N[C@H]1CC[C@H](C(NC(=O)[C@@H]2CC[C@H]3CN(S(=O)(=O)Cc4ccccc4)CC(=O)N32)C(=O)C(=O)O)CC1 (some centres undefined),5.66,0.4%,938 s,54 s,>60 min,10.05,–,–
